The record followed here is ChEMBL document CHEMBL4732123, “Discovery of 7-aminophenanthridin-6-one as a new scaffold for matrix metalloproteinase inhibitors with multitarget neuroprotective activity” (Eur J Med Chem, 2021).

A short description of data set [1]: Cytotoxicity against mouse SN-56 cells assessed as reduction in cell viability upto 100 uM incubated for 24 hrs by MTT assay. Format: cell-based. The settings on record: sn-56, 24 h. In general terms: Tetrazolium dyes change colour on reduction, which living cells bring about.
The target in another data set is Collagenase 3 (Homo sapiens, UniProt P45452). In words: Inhibition of recombinant human MMP13 (104 to 274 residues) using Mca-Pro-Leu-Gly-Leu-Dpa-Ala-Arg-NH2 expressed in Escherichia coli expression system as substrate incubated for 15 mins followed by substrate addition and measured after 2 to 4 hrs by fluorescence based assay.
In another data set the target is Neutrophil collagenase (Homo sapiens, UniProt P22894). In words: Inhibition of recombinant human MMP8 (99 to 269 residues) using Mca-Pro-Leu-Gly-Leu-Dpa-Ala-Arg-NH2 expressed in Escherichia coli expression system as substrate incubated for 15 mins followed by substrate addition and measured after 2 to 4 hrs by fluorescence based assay.
Sequence of Neutrophil collagenase (P22894 whole entry, the tested form may be a part): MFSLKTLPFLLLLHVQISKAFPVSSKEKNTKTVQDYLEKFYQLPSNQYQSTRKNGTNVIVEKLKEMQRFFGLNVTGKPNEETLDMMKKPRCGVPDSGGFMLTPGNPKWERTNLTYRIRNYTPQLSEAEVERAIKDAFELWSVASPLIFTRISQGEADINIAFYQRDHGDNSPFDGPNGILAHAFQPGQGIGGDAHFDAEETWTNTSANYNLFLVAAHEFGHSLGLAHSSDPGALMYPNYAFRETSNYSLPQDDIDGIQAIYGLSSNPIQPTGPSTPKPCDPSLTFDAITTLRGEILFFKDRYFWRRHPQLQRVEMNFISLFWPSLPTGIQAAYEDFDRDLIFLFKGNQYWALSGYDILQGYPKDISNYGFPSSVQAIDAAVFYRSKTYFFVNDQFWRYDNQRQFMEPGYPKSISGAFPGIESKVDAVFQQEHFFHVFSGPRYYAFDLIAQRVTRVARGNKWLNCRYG
The target in data set [2] is Matrix metalloproteinase-9 (Homo sapiens, UniProt P14780). Nature of the data set: Inhibition of recombinant human MMP9 (107 to 449 residues) using Mca-Pro-Leu-Gly-Leu-Dpa-Ala-Arg-NH2 expressed in Escherichia coli expression system as substrate incubated for 15 mins followed by substrate addition and measured after 2 to 4 hrs by fluorescence based assay.
Sequence of Matrix metalloproteinase-9 (P14780 whole entry, the tested form may be a part): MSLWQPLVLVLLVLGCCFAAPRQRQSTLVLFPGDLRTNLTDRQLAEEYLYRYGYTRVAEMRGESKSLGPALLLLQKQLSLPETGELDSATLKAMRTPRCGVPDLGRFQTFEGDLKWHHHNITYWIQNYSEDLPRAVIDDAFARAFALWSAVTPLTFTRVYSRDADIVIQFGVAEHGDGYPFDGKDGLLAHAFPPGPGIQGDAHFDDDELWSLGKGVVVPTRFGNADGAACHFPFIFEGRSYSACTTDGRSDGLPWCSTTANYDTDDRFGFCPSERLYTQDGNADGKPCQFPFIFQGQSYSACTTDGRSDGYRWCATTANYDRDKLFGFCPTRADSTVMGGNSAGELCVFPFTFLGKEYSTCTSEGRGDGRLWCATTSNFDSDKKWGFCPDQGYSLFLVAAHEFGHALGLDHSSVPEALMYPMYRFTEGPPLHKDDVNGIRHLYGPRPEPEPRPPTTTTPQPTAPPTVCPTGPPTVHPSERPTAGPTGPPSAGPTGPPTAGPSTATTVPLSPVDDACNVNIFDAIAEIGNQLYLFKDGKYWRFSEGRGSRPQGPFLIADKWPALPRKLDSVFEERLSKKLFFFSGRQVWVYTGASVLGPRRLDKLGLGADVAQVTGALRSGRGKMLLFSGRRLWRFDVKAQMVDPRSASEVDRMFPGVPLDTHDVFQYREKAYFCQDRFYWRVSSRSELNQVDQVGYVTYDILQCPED
Data set [3] has as its target 72 kDa type IV collagenase (Homo sapiens, UniProt P08253). Nature of the data set: Inhibition of recombinant human MMP2 (110 to 452 residues) using Mca-Pro-Leu-Gly-Leu-Dpa-Ala-Arg-NH2 expressed in yeast expression system as substrate incubated for 15 mins followed by substrate addition and measured after 2 to 4 hrs by fluorescence based assay.
A further data set has as its system SN-56. Nature of the data set: Neuroprotective activity against H2O2-induced lipid peroxidation in mouse SN-56 cells assessed as increase in MDA level incubated for 24 hrs by lipid peroxidation MDA assay kit method. The format is functional, cell-based.
The nature of data set [4]: Neuroprotective activity against H2O2-induced lipid peroxidation in mouse SN-56 cells assessed as increase in MDA level at 1 to 150 uM incubated for 24 hrs by lipid peroxidation MDA assay kit method relative to control. The format is functional. The settings on record: dose 1-150 µM.

As usually defined, the IC50 is the concentration at which inhibition is half-maximal.

Sequence of 72 kDa type IV collagenase (P08253 whole entry, the tested form may be a part): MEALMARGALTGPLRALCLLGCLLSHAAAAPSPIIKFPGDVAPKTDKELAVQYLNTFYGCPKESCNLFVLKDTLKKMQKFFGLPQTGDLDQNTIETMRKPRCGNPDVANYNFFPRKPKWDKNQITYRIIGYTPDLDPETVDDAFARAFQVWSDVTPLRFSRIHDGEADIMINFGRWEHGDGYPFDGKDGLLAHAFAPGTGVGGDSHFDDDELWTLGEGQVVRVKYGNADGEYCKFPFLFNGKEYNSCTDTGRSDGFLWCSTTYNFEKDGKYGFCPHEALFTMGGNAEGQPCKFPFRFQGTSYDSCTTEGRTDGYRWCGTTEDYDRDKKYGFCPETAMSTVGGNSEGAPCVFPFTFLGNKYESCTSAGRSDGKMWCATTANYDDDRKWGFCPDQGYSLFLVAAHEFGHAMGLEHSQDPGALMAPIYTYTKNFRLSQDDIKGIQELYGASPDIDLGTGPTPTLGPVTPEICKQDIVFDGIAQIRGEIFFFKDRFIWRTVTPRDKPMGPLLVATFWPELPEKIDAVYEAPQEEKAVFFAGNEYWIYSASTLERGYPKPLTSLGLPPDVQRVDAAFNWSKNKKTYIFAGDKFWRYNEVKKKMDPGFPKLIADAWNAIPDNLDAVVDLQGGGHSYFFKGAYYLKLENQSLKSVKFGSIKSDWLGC

In the case of `O=c1[nH]c2ccccc2c2cc(-c3ccccc3)cc(Nc3ccccc3)c12`, the Activity entry in data set [1] is given as “Non-Toxic”. Moreover, the IC50 was 42 µM at Collagenase 3, 69 µM at Neutrophil collagenase, 54 µM in data set [2] and 13 µM in data set [3].

For `COc1ccc(Nc2cc(-c3ccco3)cc3c2c(=O)[nH]c2ccccc23)cc1`, the Activity entry in data set [1] is “Non-Toxic”; with SN-56 it was “Dose-dependent effect”. In addition, the IC50 at Collagenase 3 worked out at 15 µM; on Neutrophil collagenase it was 23 µM; in data set [2], 9 µM; in data set [3], 9 µM.

On to `CN(C)c1ccc(Nc2cc(-c3ccccc3)cc3c2c(=O)[nH]c2ccccc23)cc1`, for which the Activity entry in data set [1] is given as “Non-Toxic”. The IC50 on Collagenase 3 is 40 µM; at Neutrophil collagenase, 84 µM; in data set [2], 88 µM; in data set [3], 73 µM.

Regarding `COc1ccc(Nc2cc(-c3ccccc3)cc3c2c(=O)[nH]c2c(OC)c(OC)ccc23)cc1`, the Activity result in data set [1] is listed as “Non-Toxic”. Also, the IC50 on Collagenase 3 stood at 37 µM; at Neutrophil collagenase, 68 µM; in data set [2] it was 20.5 µM; in data set [3], 42 µM.

In the case of `Cc1cc(C)cc(Nc2cc(-c3ccco3)cc3c2c(=O)[nH]c2ccccc23)c1`, the Activity result in data set [1] is “Non-Toxic”. Moreover, the IC50 was 46 µM on Collagenase 3, 60 µM at Neutrophil collagenase, 86 µM in data set [2] and 21.6 µM in data set [3].

As to `CCCCNc1cc(-c2ccccc2)cc2c1c(=O)[nH]c1ccccc12`, the results for the Activity result (in data set [1]; in data set [4]; in the data set on SN-56) were “Non-Toxic”, 100% and “Dose-dependent effect”, respectively. For the same molecule, the IC50 at Collagenase 3 is 60 µM; on Neutrophil collagenase it was 86 µM; in data set [2], 99.5 µM; in data set [3], 56 µM.

With `O=c1[nH]c2ccccc2c2cc(-c3ccccc3)cc(Nc3ccc(F)cc3)c12`, the Activity entry in data set [1] was “Non-Toxic”; in the data set on SN-56 it was “Dose-dependent effect”. In addition, the IC50 on Collagenase 3 was 99 µM; on Neutrophil collagenase, above 100 µM; in data set [2], 99 µM; in data set [3], 98 µM.

Regarding `Nc1cc(-c2ccccc2)cc2c1c(=O)[nH]c1ccccc12`, the Activity entry in data set [1] is “Non-Toxic”. Besides, the IC50 (at Collagenase 3; at Neutrophil collagenase; in data set [2]; in data set [3]) was above 100 µM each time.

Regarding `O=c1[nH]c2ccccc2c2cc(-c3ccco3)cc(Nc3ccc(F)cc3)c12`, in data set [1], the Activity result is “Non-Toxic”. For the same molecule, the IC50 was above 100 µM on Collagenase 3, above 100 µM at Neutrophil collagenase, above 100 µM in data set [2] and 45.4 µM in data set [3].

Consider `Cn1c(=O)c2c(Nc3ccccc3)cc(-c3ccccc3)cc2c2ccccc21`, for which the Activity entry in data set [1] is on record as “Non-Toxic”. In addition, the IC50 (on Collagenase 3; on Neutrophil collagenase; in data set [2]; in data set [3]) was above 100 µM in each case.

Regarding `O=c1[nH]c2ccccc2c2cc(-c3ccco3)cc(Nc3ccccc3)c12`, the Activity entry in data set [1] is “Non-Toxic”; in the data set with SN-56, “Dose-dependent effect”. Besides, the IC50 at Collagenase 3 is 41.7 µM; at Neutrophil collagenase, above 100 µM; in data set [2], above 100 µM; in data set [3], 25.4 µM.

For the molecule `Cc1ccc(-c2cc(Nc3ccccc3)c3c(=O)[nH]c4ccccc4c3c2)cc1`, in data set [1], the Activity entry is recorded as “Non-Toxic”. The IC50 is 41 µM at Collagenase 3, 62 µM on Neutrophil collagenase, 37.5 µM in data set [2] and 84.5 µM in data set [3].

Consider `COc1ccc(-c2cc(Nc3ccccc3)c3c(=O)[nH]c4ccccc4c3c2)cc1`, for which the Activity result is “Non-Toxic” in data set [1] and “Dose-dependent effect” in the data set on SN-56. For the same molecule, the IC50 at Collagenase 3 worked out at 40 µM; at Neutrophil collagenase it was 54 µM; in data set [2], 32 µM; in data set [3], 47 µM.
